The source of these data is patent publication US12264156B2, “Compounds and pharmaceutical compositions thereof for the treatment of diseases” (GALAPAGOS NV, priority 2018, dated 2025).

Broadly, the pIC50 is the negative decadic logarithm of the IC50, by convention in mol/L. Low readings indicate a large IC50, high ones a small IC50. The pEC50 is the negative decadic logarithm of the EC50, by convention in mol/L.

One experiment concerns the target T1, SIK1 (Homo sapiens, UniProt P57059).
T1 construct: purchased Carna Biosciences 02-131
The experiment can be described thus: ADP-Glo kinase assay, SIK1. Type of experiment: biochemical. To be noted: ADP-Glo SIK kinase assay. The procedure, abridged: (§1)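 Enzyme–substrate mix was started with ATP and incubated 120 min at RT. ADP formed was quantified by ADP-Glo: 40 min ATP depletion, then 30 min detection reagent converting ADP to ATP for luciferase luminescence, which rises with kinase activity. Controls: 1% DMSO and 10 μM staurosporine (final).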

In the next experiment the target is T2, SIK2 (Homo sapiens, UniProt Q9H0K1).
T2 construct: purchased ThermoFisher Scientific PV4792
Briefly: ADP-Glo kinase assay, SIK2. The format is biochemical. To be noted: ADP-Glo SIK kinase assay. The method, boiled down:
as §1
In general terms: ADP-Glo turns the ADP formed in a reaction into a luminescent signal.

Another experiment addresses T3, SIK3 (Homo sapiens, UniProt Q9Y2K2).
T3 construct: purchased SignalChem S12-11G-100
Briefly: ADP-Glo kinase assay, SIK3. Type of experiment: biochemical. To be noted: ADP-Glo SIK kinase assay. The procedure, abridged: as §1

Experiment [1] has as its system LPS-induced TNFα in monocytes. Briefly: Monocytes assay: LPS-triggered TNFα (ELISA). Type of experiment: cell-based, human. To be noted: Homo sapiens, Monocyte, LPS 200 ng/mL, supernatant after 4 h. Here is the method:
(§2) SIK inhibition inhibits TNFα and increases IL-10 release in LPS triggered monocyte-derived macrophages (MdM) and dendritic cells (MdDCs) (Clark et al. 2012; Sundberg et al. 2014; Ozanne et al. 2015). This assay evaluates illustrative compounds of the invention for their inhibition of LPS-induced TNFα and LPS triggered IL-10 secretion in monocytes.
(§3) PBMCs are isolated from human blood samples (buffycoats). The buffy coat is aseptically transferred into a 50 mL Falcon tube, and diluted 1/2 in PBS. Falcon tubes are filled with 20 mL Lymphoprep™, on top of which 25 mL of the buffy coat is carefully added, tubes are centrifuged for 35 min at 400 g in temperature controlled centrifuge, without brake, at 25° C. PBMCs are aspirated from the white interface layer between sample and Lymphoprep™. PBMCs are washed five times in PBS. Cells are resuspended in RPMI 1640 complete medium supplemented with 10% FBS, 1% P/S, and cell density is determined using a hematologic analyzer (Sysmex XS-500i).
(§4) PBMCs are centrifuged at 300×g for 10 min and resuspended at a density of 1.0*10^7 cells/80 μL Miltenyi buffer (PBS, pH 7.4, 1% FBS, 2 mM EDTA).
(§5) Starting from this point of the protocol all steps are performed on ice. 20 μL of CD14+ micro-beads are added per 1.0*10^7 cells, the tube is mixed and incubated for 15 min in the fridge at 4° C. Cell suspension volume is adjusted to total volume of 100 mL using Miltenyi buffer, mixed gently and subsequently centrifuged for 10 min at 300×g. Supernantant is discarded and cell pellet is resuspended in 12 mL of Miltenyi buffer.
(§6) Four LS columns are placed in the MACS Separator (magnet) from Miltenyi Biotec, and are prewet by rinsing with 3 mL of MACS buffer per column. Three mL of cell suspension is added onto the column (max 1*10^8 of labelled cells/column), and columns are subsequently washed 3 times with 3 mL of Miltenyi buffer.
(§7) The columns are removed from the magnets, and 5 mL of Miltenyi buffer are added to the column to flush out the CD14+ fraction by pushing the plunger into the column. The flushed fractions are collected in a fresh 50 mL Falcon and volume is adjusted to 30 mL using Miltenyi buffer, cells are centrifuged for 10 min at 300×g. The obtained cell pellet is resuspended in 10 mL RPMI w/o FBS, and cell density is determined using a hematologic analyser (Sysmex XS-500i). 100 000 cells are seeded in 80 μL per well of a 96-well plate in RPMI 1640 medium supplemented with 10% FBS, 1% P/S.
(§8) A compound dilution plate is made in 100% DMSO by 3-fold dilution of 10 mM stock solution. An intermediate dilution plate (10× final concentration) is made by diluting the compound dilution plate 50-fold in RPMI medium.
(§9) 10 μL of the 10× final concentration compound is added to the cells and incubated for 1 h at 37° C. before addition of trigger. No trigger conditions/trigger conditions are spiked with equal final DMSO concentrations of 0.2% DMSO. 10 μL of 10×LPS (final conc. 200 ng/mL) solution are added to all wells except for the ‘no trigger wells’ where 10 μL medium is added. Supernatant is collected after 4 h of LPS triggering.
A Lumitrac 600 Greiner 384-well plate is coated with 40 μL of capture antibody (BD Pharmingen, Cat #551220) reaching a final concentration of 1 μg/mL in 1×PBS and stored overnight at 4° C.
The plate is then washed once with PBST (PBS+0.05% Tween20) and once with PBS followed by the addition of 100 μL of blocking buffer (1% Bovine Serum Albumin (BSA)−5% Sucrose) and plates are sealed and incubated for at least 4 h at RT. After washing the plate once with PBST and once with PBS, […]. Plates are washed twice with PBST, and once with PBS, after which 35 μL of the detection antibody is added (final concentration 0.25 μg/mL diluted in dilution buffer) and plates are incubated for at least 2 h at RT. […]
On the technique in general: In an ELISA, binding on a coated surface is turned into a signal by an enzyme label.

Experiment [2] has as its system LPS triggered IL-10 secretion in monocytes. The experiment can be described thus: Monocytes assay: LPS-triggered IL-10 (ELISA). Type of experiment: cell-based, human. To be noted: LPS 200 ng/mL, supernatant after 4 h, maximal fold change vs LPS only. Here is the method: as §2, §3, §4, §5, §6, §7, §8, §9
A Lumitrac 600 Greiner 384-well plate is coated with 40 μL of capture antibody (final concentration of 1 μg/mL in 1×PBS) and stored overnight at 4° C. The next day the plate is washed three times with PBST (PBS+0.05% Tween20) and once with PBS followed by the addition of 100 μL of blocking buffer (1% BSA−5% Sucrose) and plates are sealed and incubated for at least 4 h at RT. After washing the plate once with PBST and once with PBS, 40 μL of standard or sample are added (IL-10 standard curve is prepared using a 1/2 serial dilution starting from […]; dilutions are made in dilution buffer (PBS+1% BSA)). Plates are washed twice with PBST, and once with PBS, after which 35 μL of the detection antibody is added (final concentration 0.143 μg/mL diluted in dilution buffer) and plates are incubated for at least 2 h at RT. […]

pEC50, pIC50: −log10 of the molar value.

T1 sequence (P57059 whole entry): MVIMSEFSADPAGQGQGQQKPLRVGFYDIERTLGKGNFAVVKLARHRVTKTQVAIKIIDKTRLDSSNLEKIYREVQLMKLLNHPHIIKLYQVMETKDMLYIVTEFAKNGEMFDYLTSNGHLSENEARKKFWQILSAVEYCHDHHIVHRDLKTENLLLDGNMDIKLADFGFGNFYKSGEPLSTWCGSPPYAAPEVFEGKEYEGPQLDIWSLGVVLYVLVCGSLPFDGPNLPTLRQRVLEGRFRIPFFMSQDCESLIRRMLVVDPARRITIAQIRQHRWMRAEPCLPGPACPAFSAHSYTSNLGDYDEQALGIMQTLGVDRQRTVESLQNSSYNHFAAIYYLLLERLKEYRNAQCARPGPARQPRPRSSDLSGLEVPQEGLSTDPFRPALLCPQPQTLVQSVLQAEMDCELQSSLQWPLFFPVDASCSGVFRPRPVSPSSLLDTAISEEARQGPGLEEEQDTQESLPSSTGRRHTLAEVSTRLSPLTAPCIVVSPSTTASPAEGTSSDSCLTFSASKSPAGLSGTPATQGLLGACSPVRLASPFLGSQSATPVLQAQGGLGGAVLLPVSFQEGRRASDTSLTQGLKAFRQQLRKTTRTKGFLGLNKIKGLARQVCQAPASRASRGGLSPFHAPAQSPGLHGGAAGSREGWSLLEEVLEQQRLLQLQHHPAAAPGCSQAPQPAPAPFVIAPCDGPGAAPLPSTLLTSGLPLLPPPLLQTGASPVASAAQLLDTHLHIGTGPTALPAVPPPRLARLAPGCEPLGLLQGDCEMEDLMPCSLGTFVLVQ
T2 sequence (Q9H0K1 whole entry): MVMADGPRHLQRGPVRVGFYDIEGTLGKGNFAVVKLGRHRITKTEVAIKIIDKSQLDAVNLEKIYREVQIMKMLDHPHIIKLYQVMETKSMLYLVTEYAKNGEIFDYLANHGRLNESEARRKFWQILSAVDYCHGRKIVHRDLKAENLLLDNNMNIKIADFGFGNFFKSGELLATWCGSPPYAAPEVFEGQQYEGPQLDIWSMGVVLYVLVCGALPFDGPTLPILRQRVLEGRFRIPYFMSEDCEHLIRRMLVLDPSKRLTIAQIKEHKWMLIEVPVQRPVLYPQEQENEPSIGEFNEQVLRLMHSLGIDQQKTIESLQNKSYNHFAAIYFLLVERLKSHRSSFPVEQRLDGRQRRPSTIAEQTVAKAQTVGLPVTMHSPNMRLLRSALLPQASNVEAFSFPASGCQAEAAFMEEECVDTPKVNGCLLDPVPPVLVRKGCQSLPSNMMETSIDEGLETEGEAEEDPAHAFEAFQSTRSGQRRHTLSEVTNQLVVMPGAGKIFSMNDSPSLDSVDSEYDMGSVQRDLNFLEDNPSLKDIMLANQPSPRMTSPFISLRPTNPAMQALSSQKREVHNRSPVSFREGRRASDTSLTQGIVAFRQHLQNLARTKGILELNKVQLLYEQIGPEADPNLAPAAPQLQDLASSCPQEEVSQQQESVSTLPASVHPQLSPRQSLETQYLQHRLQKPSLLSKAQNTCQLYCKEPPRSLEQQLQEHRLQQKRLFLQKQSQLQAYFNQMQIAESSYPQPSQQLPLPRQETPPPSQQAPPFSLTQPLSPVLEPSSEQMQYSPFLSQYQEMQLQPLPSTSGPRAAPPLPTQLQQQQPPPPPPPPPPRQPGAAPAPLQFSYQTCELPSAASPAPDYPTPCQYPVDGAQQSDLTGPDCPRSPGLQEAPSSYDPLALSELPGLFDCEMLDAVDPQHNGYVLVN
T3 sequence (Q9Y2K2 whole entry): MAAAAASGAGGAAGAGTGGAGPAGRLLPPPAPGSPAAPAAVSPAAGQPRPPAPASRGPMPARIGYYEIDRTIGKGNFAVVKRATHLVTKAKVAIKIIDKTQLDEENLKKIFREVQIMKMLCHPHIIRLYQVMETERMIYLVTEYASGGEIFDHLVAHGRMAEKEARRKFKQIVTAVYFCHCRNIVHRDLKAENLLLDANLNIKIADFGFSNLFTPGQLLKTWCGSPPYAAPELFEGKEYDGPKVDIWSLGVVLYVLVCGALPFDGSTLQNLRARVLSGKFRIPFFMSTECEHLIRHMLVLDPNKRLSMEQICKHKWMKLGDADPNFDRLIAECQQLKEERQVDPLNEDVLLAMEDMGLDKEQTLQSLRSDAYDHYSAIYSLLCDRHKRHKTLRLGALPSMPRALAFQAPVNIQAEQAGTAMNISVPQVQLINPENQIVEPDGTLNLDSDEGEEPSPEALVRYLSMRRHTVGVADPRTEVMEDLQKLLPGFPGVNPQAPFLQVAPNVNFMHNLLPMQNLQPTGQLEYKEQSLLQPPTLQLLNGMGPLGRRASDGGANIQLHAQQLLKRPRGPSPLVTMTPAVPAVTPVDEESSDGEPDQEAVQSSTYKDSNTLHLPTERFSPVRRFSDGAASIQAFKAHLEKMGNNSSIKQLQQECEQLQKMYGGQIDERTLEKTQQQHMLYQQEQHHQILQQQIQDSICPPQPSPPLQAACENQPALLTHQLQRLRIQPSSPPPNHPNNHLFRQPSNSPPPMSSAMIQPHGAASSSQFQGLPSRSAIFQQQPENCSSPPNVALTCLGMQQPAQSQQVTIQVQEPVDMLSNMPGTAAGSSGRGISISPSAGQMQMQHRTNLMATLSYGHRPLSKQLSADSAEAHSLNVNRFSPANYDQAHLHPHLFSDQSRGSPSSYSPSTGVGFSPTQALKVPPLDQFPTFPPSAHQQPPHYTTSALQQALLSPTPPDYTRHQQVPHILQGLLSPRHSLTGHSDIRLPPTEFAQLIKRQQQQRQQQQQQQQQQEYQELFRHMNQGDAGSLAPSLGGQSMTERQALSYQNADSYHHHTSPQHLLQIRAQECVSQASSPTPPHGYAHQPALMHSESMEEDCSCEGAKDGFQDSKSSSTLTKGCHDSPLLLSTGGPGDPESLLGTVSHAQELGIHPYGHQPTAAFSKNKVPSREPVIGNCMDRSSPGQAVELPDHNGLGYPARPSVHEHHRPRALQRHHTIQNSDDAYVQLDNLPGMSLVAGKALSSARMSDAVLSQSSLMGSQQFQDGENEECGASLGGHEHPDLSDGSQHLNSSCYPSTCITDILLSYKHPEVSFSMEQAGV

Consider `COc1cc(-c2cnc3cc(OC[C@@H]4CCN(CCO)C4)ccn23)cc(OC(F)F)c1C(=O)NC1CC1` [Cpd 349, N-cyclopropyl-2-(difluoromethoxy)-4-[7-[[(3R)-1-(2-hydroxyethyl)pyrrolidin-3-yl]methoxy]imidazo[1,2-a]pyridin-3-yl]-6-methoxy-benzamide], for which the pIC50 is 7.00 to 8.00 against SIK1, 8.00 to 11.00 against SIK2 and 8.00 to 11.00 at SIK3. This compound also showed a pEC50 in experiment [1] (4 h) of 6.00 to 7.00. In addition, the “IL-10 FCmax median” value in experiment [2] is “+++ (>4.5)”.

Take `COc1cc(-c2cnc3cc(OCCCN4CCC(F)(C(N)=O)CC4)ccn23)cc(OC(F)F)c1C(=O)NC1CC1` [Cpd 361, l-[3-[3-[4-(cyclopropylcarbamoyl)-3-(difluoromethoxy)-5-methoxy-phenyl]imidazo[1,2-a]pyridin-7-yl]oxypropyl]-4-fluoro-piperidine-4-carboxamide]: the values for the pIC50 at SIK1, at SIK2 and on SIK3 were 7.00 to 8.00, 8.00 to 11.00 and 8.00 to 11.00, respectively. This compound gave a pEC50 in experiment [1] (4 h) of 7.00 to 10.00. For the same compound, in experiment [2], the “IL-10 FCmax median” value is listed as “++ (>1.5-4.5)”.

For the compound `COc1cc(-c2cnc3cc(OCCCN4CCC(F)(C(=O)O)CC4)ccn23)cc(OC(F)F)c1C(=O)NC1CC1` [Cpd 366, 1-[3-[3-[4-(cyclopropylcarbamoyl)-3-(difluoromethoxy)-5-methoxy-phenyl]imidazo[1,2-a]pyridin-7-yl]oxypropyl]-4-fluoro-piperidine-4-carboxylic acid], the pIC50 on SIK1 is 7.00 to 8.00; on SIK2, 8.00 to 11.00; against SIK3, 8.00 to 11.00. In experiment [1] (4 h), this compound gave a negative logarithm of the EC50 (pEC50) of 5.30 to 6.00. The “IL-10 FCmax median” value in experiment [2] was “++ (>1.5-4.5)”.

Turning to `COc1cc(-c2cnc3cc(OC[C@@H]4CCCN(CCO)C4)ccn23)cc(OC(F)F)c1C(=O)NC1CC1` [Cpd 370, N-cyclopropyl-2-(difluoromethoxy)-4-[7-[[(3R)-1-(2-hydroxyethyl)-3-piperidyl]methoxy]imidazo [1,2-a]pyridin-3-yl]-6-methoxy-benzamide], the pIC50 on SIK1 was 7.00 to 8.00; against SIK2, 8.00 to 11.00; at SIK3 it was 8.00 to 11.00. The pEC50 in experiment [1] (4 h) is 6.00 to 7.00. Moreover, the “IL-10 FCmax median” value in experiment [2] is listed as “++ (>1.5-4.5)”.

Take `COc1cc(-c2cnc3cc(OCCNC(=O)C(F)F)ccn23)cc(OC(F)F)c1C(=O)NC1CC1` [Cpd 371, N-cyclopropyl-4-[7-[2-[(2,2-difluoroacetyl)amino]ethoxy]imidazo[1,2-a]pyridin-3-yl]-2-(difluoromethoxy)-6-methoxy-benzamide]: the pIC50 at SIK1, on SIK2 and on SIK3 was 8.00 to 11.00 throughout. Also, the pEC50 in experiment [1] (4 h) is 6.00 to 7.00. In addition, the “IL-10 FCmax median” value in experiment [2] is “++ (>1.5-4.5)”.

Consider `CCOC(=O)CN1[C@@H]2CC[C@H]1CC(Oc1ccn3c(-c4cc(OC)c(C(=O)NC5CC5)c(OC(F)F)c4)cnc3c1)C2` (stereo partly drawn) [compound 272, ethyl 2-[(1R,5S)-3-[3-[4-(cyclopropylcarbamoyl)-3-(difluoromethoxy)-5-methoxy-phenyl]imidazo[1,2-a]pyridin-7-yl]oxy-8-azabicyclo[3.2.1]octan-8-yl]acetate], for which the pIC50 against SIK1 is 6.30 to 7.00; against SIK2, 7.00 to 8.00; on SIK3, 7.00 to 8.00. The pEC50 in experiment [1] was 7.00 to 10.00. Moreover, the “IL-10 FCmax median” value in experiment [2] is “+++ (>4.5)”.

On to `COc1cc(-c2cnc3cc(OCCCN4CCC(O)CC4)ccn23)cc(OC(F)F)c1C(=O)NC1CC1` [compound 277, N-cyclopropyl-2-(difluoromethoxy)-4-[7-[3-(4-hydroxy-1-piperidyl)propoxy]imidazo [1,2-a]pyridin-3-yl]-6-methoxy-benzamide], for which the figures for the pIC50 against SIK1, against SIK2 and on SIK3 were 7.00 to 8.00, 8.00 to 11.00 and 8.00 to 11.00, respectively. In experiment [1] (4 h), this compound gave a pEC50 of 7.00 to 10.00. The “IL-10 FCmax median” value in experiment [2] was “+++ (>4.5)”.

For the compound `COc1cc(-c2cnc3cc(OCC4CCCN(C(C)C)C4)ccn23)cc(OC(F)F)c1C(=O)NC1CC1` (stereo not shown) [compound 280, N-cyclopropyl-2-(difluoromethoxy)-4-[7-[(1-isopropyl-3-piperidyl)methoxy]imidazo [1,2-a]pyridin-3-yl]-6-methoxy-benzamide], the pIC50 at SIK1, against SIK2 and at SIK3 was 8.00 to 11.00 in each case. In experiment [1] (4 h), the pEC50 is 7.00 to 10.00. Besides, in experiment [2], the “IL-10 FCmax median” value is recorded as “++ (>1.5-4.5)”.

As to `COc1cc(-c2cnc3cc(OCCCN4CCOCC45CCC5)ccn23)cc(OC(F)F)c1C(=O)NC1CC1` [compound 281, N-cyclopropyl-2-(difluoromethoxy)-6-methoxy-4-[7-[3-(8-oxa-5-azaspiro[3.5]nonan-5-yl)propoxy]imidazo[1,2-a]pyridin-3-yl]benzamide], the pIC50 against SIK1, at SIK2 and at SIK3 was 8.00 to 11.00 each time. For the same compound, the pEC50 in experiment [1] (4 h) is 7.00 to 10.00. The “IL-10 FCmax median” value in experiment [2] was “+++ (>4.5)”.

`COc1cc(-c2cnc3cc(OCC4COCCN4C(C)C)ccn23)cc(OC(F)F)c1C(=O)NC1CC1` (stereo not shown) [compound 283, N-cyclopropyl-2-(difluoromethoxy)-4-[7-[(4-isopropylmorpholin-3-yl)methoxy]imidazo[1,2-a]pyridin-3-yl]-6-methoxy-benzamide]: the pIC50 was 7.00 to 8.00 at SIK1, 7.00 to 8.00 on SIK2 and 8.00 to 11.00 at SIK3. This compound had a pEC50 in experiment [1] (4 h) of 6.00 to 7.00. Further, the “IL-10 FCmax median” value in experiment [2] is given as “+++ (>4.5)”.

In the case of `COc1cc(-c2cnc3cc(OCCCN4CC5CC4CO5)ccn23)cc(OC(F)F)c1C(=O)NC1CC1` (stereo not shown) [compound 284, N-cyclopropyl-2-(difluoromethoxy)-6-methoxy-4-[7-[3-(2-oxa-5-azabicyclo[2.2.1]heptan-5-yl)propoxy]imidazo[1,2-a]pyridin-3-yl]benzamide], the pIC50 against SIK1, against SIK2 and against SIK3 was 8.00 to 11.00 throughout. In experiment [1] (4 h), this compound showed a pEC50 of 7.00 to 10.00. The “IL-10 FCmax median” value in experiment [2] is listed as “++ (>1.5-4.5)”.
